Data set [1] relates to Human umbilical venal epithelial cell (HUVEC). The experiment in a line: in vitro. The note with it: HUVEC; for LC50 (50% lethal concentration): normal human cell line; for IC50: Homo sapiens, read-out: IC50 (50% inhibition concentration), HUVEC, normal human cell line. From the text:
(§1) In Vitro Anti-Cancer Test
(§2) The in vitro anti-cancer test was primarily used to detect the effect of a candidate drug on cancer cell proliferation. The working principle involved therein is the ability of viable cells to shift alamarBlue (AbD Serotec, UK) from its originally non-fluorescent oxidized state (non-fluorescent, blue) to a reduced form (fluorescent, red) having fluorescence via metabolic reaction. According to the fluorescent data result generated by the alamarBlue reagent thus obtained, the proliferation of the viable cells and cell activity can be quantified for detection.
(§3) In the in vitro anti-cancer tests, a candidate drug was tested at 5 different concentrations of 0.01, 0.1, 1, 10, and 100 μg/ml, and six human cancer cell lines and a normal human cell line were used (see Table 5).

The subject of data set [2] is Human histocytic lymphoma cell U937. As to the kind of experiment: cells. The note with it: U-937, read-out: IC50 (50% inhibition concentration), U937.
Source text: as §1, §2, §3

Data set [3] concerns Human hepatocellular carcinoma cell HepG2. The experiment in a line: cells. To be noted: HepG2, read-out: IC50 (50% inhibition concentration), HepG2.
Source text: as §1, §2, §3

Data set [4] relates to Human colon adenocarcinoma cell HT-29. The experiment in a line: cells. To be noted: HT-29, read-out: IC50 (50% inhibition concentration), HT-29.
Source text: as §1, §2, §3

Data set [5] concerns Human promyelocytic leukemia cell HL-60. As to the kind of experiment: cells. To be noted: HL-60, read-out: IC50 (50% inhibition concentration), HL-60.
Source text: as §1, §2, §3

In data set [6] the test system is Human breast adenocarcinoma cell MCF7. The experiment in a line: cells.
Source text: as §1, §2, §3

Data set [7] relates to Human lung carcinoma cell A549. As to the kind of experiment: cells. The note with it: A549, read-out: IC50 (50% inhibition concentration), A549.
Source text: as §1, §2, §3

Where [8] appears, read: Homo sapiens, MCF7, read-out: IC50 (50% inhibition concentration), MCF-7.

Values after ≈ are worked out from the molar mass of the structure shown. Where two headings read alike, the source gives them in different places.

Regarding `C=C(C)C1CC[C@@]2(C)Oc3c(CC=C(C)C)c4c(c(O)c3[C@@H]1C2O)C(=O)C1=C[C@@H]2CC3C(C)(C)OC(C/C=C(/C)C(=O)O)(C2=O)[C@@]13O4` (stereo in doubt) [Gh-1050, 2-butenoic acid, 2-methyl-4-[(1R,3aS,5S,9R,10S,13R,16aS,17S)-3a,4,5,7,10,11,12,13-octahydro-8,17-dihydroxy-3,3,13-trimethyl-15-(3-methyl-2-butenyl)-10-(1-methylethenyl)-7,18-dioxo-1,5:9,13-dimethano-1H,3H,9H-furo[3.4-g]oxocino[3.2-b]xanthen-1-yl]-,(2Z)-], in data set [1], the “LC50 (50% lethal concentration)” value is 3.4 µg/mL (≈ 5.27 µM).

As to `CC(C)=CCC[C@@]1(C)Oc2c(c(O)c3c(c2CC=C(C)C)O[C@]24C(=C[C@@H]5CC2C(C)(C)OC4(C/C=C(/C)C(=O)O)C5=O)C3=O)C[C@H]1O` (stereo in doubt) [Gh-1631, 2-butenoic acid, 2-methyl-4-[(1R,3aS,5S,10R,11R,14aS)-3a,4,5,7,10,11-hexahydro-8,10-dihydroxy-3,3,11-trimethyl-13-(3-methyl-2-butenyl)-11-(4-methyl-3-pentenyl)-7,15-dioxo-1,5-methano-1H,3H,9H-furo[3.4-g]pyrano[3.2-b]xanthen-1-yl]-,(2Z)-], the IC50 in data set [2] was 0.18 µg/mL (≈ 0.278 µM); in data set [3], 0.85 µg/mL (≈ 1.31 µM); in data set [4] it was 6.1 µg/mL (≈ 9.43 µM); in data set [5], 0.19 µg/mL (≈ 0.294 µM); in data set [1], 0.58 µg/mL (≈ 0.897 µM); in data set [6] (setting [8]) it was 0.14 µg/mL. Further, in data set [7], the IC50 was 0.14 µg/mL (≈ 0.216 µM).

For the compound `CC(C)=CCc1c2c(c(O)c3c1O[C@]14C(=C[C@@H]5CC1C(C)(C)OC4(C/C=C(\C)C(=O)O)C5=O)C3=O)C=CC(C)(C/C=C\C(C)(C)O)O2` (stereo in doubt) [Gh-3332, 2-butenoic acid, 2-methyl-4-[(1R,3aS,5S,14aS)-3a,4,5,7-tetrahydro-8-hydroxy-3,3,11-trimethyl-13-(3-methyl-2-butenyl)-11-(4-hydroxy-4-methyl-2Z-pentenyl)-7,15-dioxo-1,5-methano-1H,3H,11H-furo[3.4-g]pyrano[3.2-b]xanthen-1-yl]-,(2E)-], the “LC50 (50% lethal concentration)” value in data set [1] turned out to be 3.3 µg/mL (≈ 5.12 µM).

Turning to `CC(C)=CCC[C@@]1(C)C=Cc2c(O)c3c(c(CC(O)C(C)(C)O)c2O1)O[C@]12C(=C[C@@H]4CC1C(C)(C)OC2(C/C=C(/C)C(=O)O)C4=O)C3=O` (stereo partly drawn) [Gh-1036, 2-butenoic acid, 2-methyl-4-[(1R,3aS,5S,11S,14aS)-3a,4,5,7-tetrahydro-8-hydroxy-3,3,11-trimethyl-13-(2,3-dihydroxy-3-methylbutyl)-11-(4-methyl-3-pentenyl)-7,15-dioxo-1,5-methano-1H,3H,11H-furo[3.4-g]pyrano[3.2-b]xanthen-1-yl]-,(2Z)-], the IC50 in data set [2] came to 0.29 µg/mL (≈ 0.438 µM); in data set [3], 0.88 µg/mL (≈ 1.33 µM); in data set [4], 1.4 µg/mL (≈ 2.11 µM); in data set [5] it was 0.45 µg/mL (≈ 0.679 µM); in data set [1] it was 0.46 µg/mL (≈ 0.694 µM); in data set [6] (setting [8]), 0.35 µg/mL. Further, in data set [7], the IC50 was 0.22 µg/mL (≈ 0.332 µM).

For the compound `CC(C)=CCC[C@]1(C)C=Cc2c(O)c3c(c(CC(O)C(C)(C)O)c2O1)O[C@]12C(=C[C@@H]4CC1C(C)(C)OC2(C/C=C(/C)C(=O)O)C4=O)C3=O` (stereo partly drawn) [Gh-1052, 2-butenoic acid, 2-methyl-4-[(1R,3aS,5S,11R,14aS)-3a,4,5,7-tetrahydro-8-hydroxy-3,3,11-trimethyl-13-(2,3-dihydroxy-3-methylbutyl)-11-(4-methyl-3-pentenyl)-7,15-dioxo-1,5-methano-1H,3H,11H-furo[3.4-g]pyrano[3.2-b]xanthen-1-yl]-,(2Z)-], the IC50 in data set [2] was determined as 0.22 µg/mL (≈ 0.332 µM); in data set [3], 1.2 µg/mL (≈ 1.81 µM); in data set [4] it was 1.6 µg/mL (≈ 2.41 µM); in data set [5] it was 0.23 µg/mL (≈ 0.347 µM); in data set [1], 0.47 µg/mL (≈ 0.709 µM); in data set [6] (setting [8]), 0.52 µg/mL. In addition, the IC50 in data set [7] was 0.46 µg/mL (≈ 0.694 µM).

`CC(C)=CCc1c2c(c(O)c3c1O[C@]14C(=C[C@@H]5CC1C(C)(C)OC4(C/C=C(/C)C(=O)O)C5=O)C3=O)C=C[C@@](C)(CCC(O)C(C)(C)O)O2` (stereo partly drawn) [Gh-3261, 2-butenoic acid, 2-methyl-4-[(1R,3aS,5S,11R,14aS)-3a,4,5,7-tetrahydro-8-hydroxy-3,3,11-trimethyl-13-(3-methyl-2-butenyl)-11-(3,4-dihydroxy-4-methylpentyl)-7,15-dioxo-1,5-methano-1H,3H,11H-furo[3.4-g]pyrano[3.2-b]xanthen-1-yl]-,(2Z)-]: the IC50 in data set [2] came out at 0.11 µg/mL (≈ 0.166 µM); in data set [3] it was 1 µg/mL (≈ 1.51 µM); in data set [4] it was 1.1 µg/mL (≈ 1.66 µM); in data set [5], 1.9 µg/mL (≈ 2.87 µM); in data set [1], 0.29 µg/mL (≈ 0.438 µM); in data set [6] (setting [8]), 0.36 µg/mL. For the same compound, the IC50 in data set [7] came out at 0.19 µg/mL (≈ 0.287 µM).

For the compound `CC(C)=CCc1c2c(c(O)c3c1O[C@]14C(=C[C@@H]5CC1C(C)(C)OC4(C/C=C(/C)C(=O)O)C5=O)C3=O)C=C[C@](C)(CCC(O)C(C)(C)O)O2` (stereo partly drawn) [Gh-3271, 2-butenoic acid, 2-methyl-4-[(1R,3aS,5S,11S,14aS)-3a,4,5,7-tetrahydro-8-hydroxy-3,3,11-trimethyl-13-(3-methyl-2-butenyl)-11-(3,4-dihydroxy-4-methylpentyl)-7,15-dioxo-1,5-methano-1H,3H,11H-furo[3.4-g]pyrano[3.2-b]xanthen-1-yl]-,(2Z)-], the IC50 in data set [2] was found to be 0.11 µg/mL (≈ 0.166 µM); in data set [3], 0.46 µg/mL (≈ 0.694 µM); in data set [4] it was 1.8 µg/mL (≈ 2.72 µM); in data set [5] it was 3 µg/mL (≈ 4.53 µM); in data set [1], 0.42 µg/mL (≈ 0.634 µM); in data set [6] (setting [8]) it was 0.16 µg/mL. Besides, the IC50 in data set [7] turned out to be 0.25 µg/mL (≈ 0.377 µM).

As to `CC(C)=CCc1c2c(c(O)c3c1O[C@]14C(=C[C@@H]5CC1C(C)(C)OC4(C/C=C(/C)C(=O)O)C5=O)C3=O)C=C[C@@](C)(C/C=C/C(C)(C)O)O2` [Gh-3272, 2-butenoic acid, 2-methyl-4-[(1R,3aS,5S,11R,14aS)-3a,4,5,7-tetrahydro-8-hydroxy-3,3,11-trimethyl-13-(3-methyl-2-butenyl)-11-(4-hydroxy-4-methyl-2E-pentenyl)-7,15-dioxo-1,5-methano-1H,3H,11H-furo[3.4-g]pyrano[3.2-b]xanthen-1-yl]-,(2Z)-], in data set [1], the “LC50 (50% lethal concentration)” value came out at 2.5 µg/mL (≈ 3.88 µM).

Turning to `C=C(C)C(O)CC[C@]1(C)C=Cc2c(O)c3c(c(CC=C(C)C)c2O1)O[C@]12C(=C[C@@H]4CC1C(C)(C)OC2(C/C=C(/C)C(=O)O)C4=O)C3=O` (stereo partly drawn) [Gh-3291, 2-butenoic acid, 2-methyl-4-[(1R,3aS,5S,11R,14aS)-3a,4,5,7-tetrahydro-8-hydroxy-3,3,11-trimethyl-13-(3-methyl-2-butenyl)-11-(3-hydroxy-4-methyl-4-pentenyl)-7,15-dioxo-1,5-methano-1H,3H,11H-furo[3.4-g]pyrano[3.2-b]xanthen-1-yl]-,(2Z)-], in data set [1], the “LC50 (50% lethal concentration)” value was found to be 1.4 µg/mL (≈ 2.17 µM).

Turning to `CC(C)=CCC[C@@]1(C)C=Cc2c(O)c3c(c(C(O)C4OC4(C)C)c2O1)O[C@]12C(=C[C@@H]4CC1C(C)(C)OC2(C/C=C(/C)C(=O)O)C4=O)C3=O` (stereo partly drawn) [Gh-3311, 2-butenoic acid, 2-methyl-4-[(1R,3aS,5S,11S,14aS)-3a,4,5,7-tetrahydro-8-hydroxy-3,3,11-trimethyl-13-(1-hydroxy-2,3-epoxy-3-methylbutyl)-11-(4-methyl-3-pentenyl)-7,15-dioxo-1,5-methano-1H,3H,11H-furo[3.4-g]pyrano[3.2-b]xanthen-1-yl]-,(2Z)-], the “LC50 (50% lethal concentration)” value in data set [1] was found to be 13.9 µg/mL (≈ 21 µM).

Turning to `CC(C)=CCC[C@@]1(C)C=Cc2c(O)c3c(c(CC4OC4(C)C)c2O1)O[C@]12C(=C[C@@H]4CC1C(C)(C)OC2(C/C=C(/C)C(=O)O)C4=O)C3=O` (stereo partly drawn) [Gh-3351, 2-butenoic acid, 2-methyl-4-[(1R,3aS,5S,11S,14aS)-3a,4,5,7-tetrahydro-8-hydroxy-3,3,11-trimethyl-13-(2,3-epoxy-3-methylbutyl)-11-(4-methyl-3-pentenyl)-7,15-dioxo-1,5-methano-1H,3H,11H-furo[3.4-g]pyrano[3.2-b]xanthen-1-yl]-,(2Z)-], the “LC50 (50% lethal concentration)” value in data set [1] was 3.3 µg/mL (≈ 5.12 µM).

As for `CC(C)=CCC[C@]1(C)C=Cc2c(O)c3c(c(CC4OC4(C)C)c2O1)O[C@]12C(=C[C@@H]4CC1C(C)(C)OC2(C/C=C(/C)C(=O)O)C4=O)C3=O` (stereo partly drawn) [Gh-3352, 2-butenoic acid, 2-methyl-4-[(1R,3aS,5S,11R,14aS)-3a,4,5,7-tetrahydro-8-hydroxy-3,3,11-trimethyl-13-(2,3-epoxy-3-methylbutyl)-11-(4-methyl-3-pentenyl)-7,15-dioxo-1,5-methano-1H,3H,11H-furo[3.4-g]pyrano[3.2-b]xanthen-1-yl]-,(2Z)-], the “LC50 (50% lethal concentration)” value in data set [1] was determined as 0.85 µg/mL (≈ 1.32 µM).

As to `CC(C)=CCC[C@]1(C)C=Cc2c(O)c3c(c(C(O)C4OC4(C)C)c2O1)O[C@]12C(=C[C@@H]4CC1C(C)(C)OC2(C/C=C(/C)C(=O)O)C4=O)C3=O` (stereo partly drawn) [Gh-3353, 2-butenoic acid, 2-methyl-4-[(1R,3aS,5S,11R,14aS)-3a,4,5,7-tetrahydro-8-hydroxy-3,3,11-trimethyl-13-(1-hydroxy-2,3-epoxy-3-methylbutyl)-11-(4-methyl-3-pentenyl)-7,15-dioxo-1,5-methano-1H,3H,11H-furo[3.4-g]pyrano[3.2-b]xanthen-1-yl]-,(2Z)-], the “LC50 (50% lethal concentration)” value in data set [1] is 8.4 µg/mL (≈ 12.7 µM).

As to `CO[C@@]12[C@H](COC(N)=O)C3=C(C(=O)C(C)=C(N)C3=O)N1C[C@@H]1N[C@@H]12` [Mitomycin, mitomycin, reference compound], the IC50 in data set [6] (read-out: IC50 (50% inhibition concentration), MCF-7, positive control) came out at 150 nM.

The values are drawn from patent US9498463B2, “Compound obtained from gamboge resin, and medical uses of the same” (priority 2010, dated 2016).
